Assay results taken from patent US20140315972A1, “RS)-2-(2-oxo-4-phenylpyrrolidin-1-yl)acetamide compound having modulatory activity with a commensurate effect, pharmaceutical substance (variants) and its application, composition (variants) thereof” (priority 2011, published 2014).
Where “and” joins values, the source holds several entries; their conditions need not be identical. Identical values can stand only once. Marks after values point to notes of the source that are not given here.

Columns and labels:
rats [1] = experiment: Acute toxicity, single intragastric administration in immature rats; type: in vivo; conditions: for Dead/total number: rats 30-35 days
Experimental: Tables 2, 2.1 and 2.2 present the results of acute toxicity studies of the Compounds with active substance content in at least white outbred male mice (body weight 18-24 g) and white outbred rats 30-35 days of age, of both sexes with a single dose. Calculation of toxic doses was made using the Wilcoxon and Litchfield method. Observations were made over 24 hours and 14 days after a single dose.
LD50 in rat pups after intragastric administration was not found. Intragastric administration to rat pups of doses of more than 1000 mg/kg is technically impossible due to the small volume of the stomach (Table 2.2).

mice [2] = experiment: Cross maze exploratory behavior, HEF and LEF mice; type: in vivo; conditions: i.p. once a day 5 days, Compounds 1 and 4 100 mg/kg, Piracetam 200 mg/kg
mice [3] = experiment: Apomorphine verticalization (positive symptoms of schizophrenia); type: in vivo; conditions: for Intensity of verticalization in points: mice, apomorphine 2 mg/kg s.c.
Experimental: Studies have been conducted on white outbred male mice (18-24 g), in comparison with the olanzapine (Zyprexa) with intraperitoneal injection.
In the model of positive symptoms of schizophrenia associated with hyperactivation of the dopamine systems, which allows to identify the ability of substances to block the dopaminergic transmission in the mesolimbic system of the brain, Phenotropil (100, 200, and 300 mg/kg) reduced the apomorphine-induced (2 mg/kg subcutaneously) verticalization intensity scores (Table 4) by 45%, by 2.0 and 2.6 times, respectively.

rats [4] = experiment: Training ability of immature under-trained rats in the CRPA test; type: in vivo; conditions: for LP1 (training) / LP2 (at 24 h) / ΔLP: under-trained rats 30-35 days
Experimental: In studying immature animals, it must be considered that to generate CRPA it is required, as was established, to apply higher educational incentives (0.6 mA, 8 pulses vs 5 pulses at 0.45 mA in adult rats) with re-training (after 48 hours). Development of amnesia also requires a higher dose of scopolamine (1.3 mg/kg) in rat pups. […] Phenotropil has not only a psychomodulatory (Ψ-modulatory) activity but also a Ψ-operandmodulatory activity given that the mnemotropic effect is associated with the expression of specific proteins and genes involved in memory, attention and learning.

rats [5] = experiment: Scopolamine-induced CRPA amnesia, preventive and therapeutic use, adult male rats; type: in vivo
Text: These findings are of great importance. In clinic, medications have to be prescribed more often already in the midst of disorders.

rats [6] = experiment: Forced swimming by Porsolt (behavioral despair), rat pups; type: in vivo; conditions: for Duration of immobilization vs control: listed as Phenotropil
Experimental: The antidepressant effect of Phenotropil was studied in adult rats (185-218 g) and rat pups of 28-35 days of age (85-110 g). The test drugs were injected intraperitoneally in the first case and intragastrically in the second case 40 min before the tests. The methods of behavioral despair during forced swimming (Porsolt et al., 1978) and forced swimming with freely rotating wheels (Nomura et al., 1982) were used.

HSP32 = HSP32 level in brain structures (Western blot); type: in vivo; conditions: Wistar rats, no Ns
mice [7] = experiment: Maximum life span (MLS) of mice; type: in vivo; conditions: for The maximum life span (number of days in %): mice, change vs untreated control = 100
Experimental: The maximum life span (MLS) of mice according to our long-term statistical observations is 2.7-3, 2 years, i.e. in average 2.95 years or 1077 days. For this study we selected mice (10 individuals per group), males with dominant behavior in mixed groups, that safely survived to 985 days without signs of pronounced senility and with satisfactory orientation-exploratory behavior, determined by the “open field test” method. Phenotropil in doses of 25, 50 and 100 mg/kg was administered orally with 5.0% glucose solution. Glucose solution was used solely to improve the solubility of the drug. One control group received the glucose solution and the second one—distilled water. The third control group was not treated.

[8] = Slendering effect, body weight and rating scales in obese humans; type: in vivo, human; conditions: for Body weight (%): adult humans, change vs background (not treated) = 100; for decrease of body weight: obese women
Experimental: A study of the slendering effect of Phenotropil (100, 200 and 300 mg once a day for 30 days) in women (37-65 years) with alimentary constitutional obesity and non-obese groups (males and females 23-47 years) are presented in Table 26. The control groups received placebo tablets. The nutrition regimen and ration were not regulated; no recommendations on calories or regimen were given. The purpose of the study was to identify the effect of the drug without the influence of the diet. To assess the condition before and after treatment, in addition to the measurement of body weight, the dynamics of the general clinical condition was studied: asthenia scale MFI-20, Hospital Anxiety and Depression Scale, the quality of life scale SF-36. The questionnaires were completed twice: one day before treatment and the next day after the end of treatment.

mice [9] = conditions: animals; prior art Phenotropil products; cited from earlier work
[10] = 100.0 mg/kg before training + scopolamine
[11] = 100.0 mg/kg during training and scopolamine

In the case of `NC(=O)CN1CC(c2ccccc2)CC1=O` (racemic) [Compound 1, (RS)-2-(2-oxo-4-phenylpyrrolidine-1-yl)acetamide], the Dead/total number (rats [1]; single intragastric 800 mg/kg) is reported as 0/10, the Dead/total number (rats [1]; single intragastric 1000 mg/kg) is reported as 0/10 and the “% of dead rat pups” value (rats [1]; single intragastric 800 mg/kg) is reported as 0%. For the same compound, the “% of dead rat pups” value (rats [1]; single intragastric 1000 mg/kg) was 0%, the “Kt (trigger transmission coefficient)” value (mice [2]; HEF mice) was 3.3 ± 0.3 and the “Number of compartment explorations” value (mice [2]; HEF mice) was 4.3 ± 0.4 //. For the same compound, the Number of surveillances (mice [2]; HEF mice) was 1.3 ± 0.2, the “Kt (trigger transmission coefficient)” value (mice [2]; LEF mice) was 3.1 ± 0.35 and the “Number of compartment explorations” value (mice [2]; LEF mice) was 5.0 ± 0.5 //. The Number of surveillances (mice [2]; LEF mice) was 1.6 ± 0.2, the “Kt (trigger transmission coefficient)” value (mice [2]; population as a whole) was 3.2 ± 0.45 and the “Number of compartment explorations” value (mice [2]; population as a whole) was 4.5 ± 0.7 //. For the same compound, the Number of surveillances (mice [2]; population as a whole) was 1.4 ± 0.2, the “reduction of verticalization intensity” value (mice [3]; 1 mg/kg) was 26% and the “reduction of verticalization intensity” value (mice [3]; 10 mg/kg) was 66.5%. The “reduction of verticalization intensity” value (mice [3]; 100 mg/kg) was 45%, the “reduction of verticalization intensity” value (mice [3]; 200 mg/kg) was 2.0 times and the “reduction of verticalization intensity” value (mice [3]; 300 mg/kg) was 2.6 times. The “Intensity of verticalization in points” value (mice [3]; 100 mg/kg i.p.) was 27 ± 8.7 points, the “Intensity of verticalization in points” value (mice [3]; 200 mg/kg i.p.) was 25 ± 5.1 points and the “Intensity of verticalization in points” value (mice [3]; 300 mg/kg i.p.) was 19 ± 5.1 points. For the same compound, the “mnemotropic effect by ΔLP index versus saline treated control” value (rats [4]; 50 mg/kg) was “+133%”, the “mnemotropic effect by ΔLP index versus saline treated control” value (rats [4]; 100 mg/kg) was “+504%” and the “mnemotropic effect by ΔLP index versus saline treated control” value (rats [4]; 300 mg/kg) was “+696%”. The “LP1 (training)” value (rats [4]; intragastric 50 mg/kg) was 7.2 ± 2.1, the “LP2 (at 24 h)” value (rats [4]; intragastric 50 mg/kg) was 18.4 ± 4.6 and the ΔLP (rats [4]; intragastric 50 mg/kg) was 11.2 ± 3.4. The “LP1 (training)” value (rats [4]; intragastric 100 mg/kg) was 7.2 ± 2.1, the “LP2 (at 24 h)” value (rats [4]; intragastric 100 mg/kg) was 36.2 ± 4.6 and the ΔLP (rats [4]; intragastric 100 mg/kg) was 29.0 ± 3.4. For the same compound, the “LP1 (training)” value (rats [4]; intragastric 300 mg/kg) was 6.8 ± 1.2^, the “LP2 (at 24 h)” value (rats [4]; intragastric 300 mg/kg) was 45.0 ± 7.5 and the ΔLP (rats [4]; intragastric 300 mg/kg) was 38.2 ± 4.4. For the same compound, the “% of animals that did not enter into the dark chamber” value (rats [5]; [10]) was 80% *, the “LP Pre-training” value (rats [5]; [10]) was 17.0 ± 2.9 and the “LP of the training reproduction” value (rats [5]; [10]) was 94.1 ± 8.7. The “Number of animals that did not enter into the dark chamber” value (rats [5]; [10]) was 16/20, the “Time spent in the dark chamber” value (rats [5]; [10]) was 49.9 ± 6.9 and the “% of animals that did not enter into the dark chamber” value (rats [5]; [11]) was 70% *. For the same compound, the “LP Pre-training” value (rats [5]; [11]) was 18.4 ± 3.3, the “LP of the training reproduction” value (rats [5]; [11]) was 91.1 ± 10.1 and the “Number of animals that did not enter into the dark chamber” value (rats [5]; [11]) was 14/20. For the same compound, the “Time spent in the dark chamber” value (rats [5]; [11]) was 63.4 ± 12.5, the Duration of immobilization (rats [6]; intragastric 100 mg/kg) was 86.35 ± 51.97 s and the “Duration of immobilization vs control” value (rats [6]; intragastric 100 mg/kg) was −79.8% and −79.77 * %. The Duration of immobilization (rats [6]; intragastric 200 mg/kg) was 118.72 ± 80.04 s, the “Duration of immobilization vs control” value (rats [6]; intragastric 200 mg/kg) was −72.2% and −72.19 * % and the “HSP32 Total vs outbred control” value (HSP32; 200 mg/kg single) was “+68.8 * %”. For the same compound, the “decrease of gene expression (heat shock protein)” value (HSP32; tested dose) was 17.7%, the “increase of maximum life span” value (mice [7]; 25 mg/kg) was 23.3% and the “increase of maximum life span” value (mice [7]; 100 mg/kg) was 24.0%. For the same compound, the “increase of life span, average of all experimental groups” value (mice [7]; male mice aged 985 days, 25, 50, 100 mg/kg orally) was 22.0%, the “The maximum life span (number of days in %)” value (mice [7]; 25 mg/kg + 5.0% glucose solution) was “+20.1 * %” and the “The maximum life span (number of days in %)” value (mice [7]; 50 mg/kg + 5.0% glucose solution) was “+15.0 * %”. For the same compound, the “The maximum life span (number of days in %)” value (mice [7]; 100 mg + 5.0% glucose solution) was “+20.8 * %”, the “Body weight (%)” value ([8]; 100 mg/day) was −12.0 * % and the “Body weight (%)” value ([8]; 200 mg/day) was −15.0 * %. For the same compound, the “Body weight (%)” value ([8]; 300 mg/day) was −17.8 * %, the “positive effect on cramps when urinating, patients” value ([8]; comorbidities) was 5 of 5 and the “positive effect on lost ability to sense and discriminate odors, patients” value ([8]; comorbidities) was 11 of 18. The “positive effect on prostatitis, patients” value ([8]; comorbidities) was 3 of 3, the “positive trend in chronic sinusitis, patients” value ([8]; comorbidities) was 8 of 8 and the “decrease of body weight” value ([8]; 100 mg once a day 30 days) was 12%. For the same compound, the “decrease of body weight” value ([8]; 200 mg once a day 30 days) was 15%, the “decrease of body weight” value ([8]; 300 mg once a day 30 days) was 18% and the “decrease of anxiety and depression, on average” value ([8]; rating scales after 30 days) was “more than 60%”. For the same compound, the “decrease of indicators of fatigue” value ([8]; rating scales after 30 days) was 92% and the LD50 (mice [9]) was 800 mg/kg.
